Drawing on ChEMBL document CHEMBL1926633, “1,2,4-Triazole D-ribose derivatives: design, synthesis and antitumoral evaluation” (Eur J Med Chem, 2012), this text covers growth and logP for nine molecules.

Series [1] can be described thus: Cytotoxicity against mouse BW5147 cells expressing H-2 k haplotype, CD3+ and TCRalphabeta assessed as cell proliferation at 1 ug/mL after 24 hrs by [3H]TdR incorporation assay relative to control. In kind it is functional. The settings on record: read-out: Activity.
Series [2] is described as follows: Cytotoxicity against mouse BW5147 cells expressing H-2 k haplotype, CD3+ and TCRalphabeta assessed as cell proliferation at 10 ug/mL after 24 hrs by [3H]TdR incorporation assay relative to control. The format is functional. The settings on record: read-out: Activity.
A short description of series [3]: Cytotoxicity against mouse BW5147 cells expressing H-2 k haplotype, CD3+ and TCRalphabeta assessed as cell proliferation at 50 ug/mL after 24 hrs by [3H]TdR incorporation assay relative to control. The format is functional. The note with it: read-out: Activity.
A short description of series [4]: Cytotoxicity against mouse BW5147 cells expressing H-2 k haplotype, CD3+ and TCRalphabeta assessed as cell proliferation at 100 ug/mL after 24 hrs by [3H]TdR incorporation assay relative to control. The settings on record: read-out: Activity. The format is functional.
Series [5] can be described thus: Lipophilicity, log P of the compound. In kind it is physicochemical. The note with it: octanol/water.

Structures are written as SMILES.

Consider `C=CCO[C@@H]1O[C@H](Cn2c(-c3ccc(Cl)cc3)n[nH]c2=S)[C@@H](O)[C@H]1O`, for which the growth at 1 µg/mL in series [1] was -1.5%. Further, the growth at 10 µg/mL in series [2] stood at 6%. The growth at 50 µg/mL in series [3] was 4.4%. Moreover, the growth at 100 µg/mL in series [4] turned out to be 2%. In series [5], this molecule gave a logP of 0.18.
In the case of `C=CCO[C@@H]1O[C@H](CSc2ncn[nH]2)[C@@H](O)[C@H]1O`, the growth at 1 µg/mL in series [1] is -2.4%. The growth at 10 µg/mL in series [2] is -3%. Moreover, the growth at 50 µg/mL in series [3] is -14%. Moreover, the growth at 100 µg/mL in series [4] was -38%. Also, the logP in series [5] is -2.45.
As for `C=CCO[C@@H]1O[C@H](Cn2c(SCc3ccccc3)nnc2-c2ccc(Cl)cc2)[C@H]2OC3(CCCC3)O[C@@H]12`, the growth at 1 µg/mL in series [1] was 37%. The growth at 10 µg/mL in series [2] is 0%. Besides, in series [3], the growth at 50 µg/mL was -13%. The logP in series [5] is 1.63.
With `C=CCO[C@@H]1O[C@H](CSc2ncn[nH]2)[C@H]2OC3(CCCC3)O[C@@H]12`, the growth at 1 µg/mL in series [1] was -7%. The growth at 10 µg/mL in series [2] is -9%. Besides, in series [3], the growth at 50 µg/mL was -29%. Further, in series [4], the growth at 100 µg/mL is -43%. In series [5], this molecule had a logP of 1.95.
Regarding `COc1cc(C2=NOC(CO[C@@H]3O[C@H](CSc4ncn[nH]4)[C@H]4OC5(CCCC5)O[C@@H]34)C2)cc(OC)c1OC` (mixture of isomers), the growth at 1 µg/mL in series [1] was -5%. For the same molecule, the growth at 10 µg/mL in series [2] is -21%. Moreover, in series [3], the growth at 50 µg/mL is -24%. The growth at 100 µg/mL in series [4] is -45%. The logP in series [5] worked out at 0.9.
On to `COc1cc(C2=NOC(CO[C@@H]3O[C@H](CSc4ncn[nH]4)[C@@H](O)[C@H]3O)C2)cc(OC)c1OC` (mixture of isomers), for which, in series [1], the growth at 1 µg/mL was 93%. In series [2], the growth at 10 µg/mL was determined as 51%. The growth at 50 µg/mL in series [3] was 43%. For the same molecule, the growth at 100 µg/mL in series [4] turned out to be 29%. This molecule returned a logP in series [5] of -0.52.
As to `COc1cc(C2=NOC(CO[C@@H]3O[C@H](Cn4c(SCc5ccccc5)nnc4-c4ccc(Cl)cc4)[C@@H](O)[C@H]3O)C2)cc(OC)c1OC` (mixture of isomers), the growth at 1 µg/mL in series [1] came to 143%. Further, the growth at 10 µg/mL in series [2] came to 210%. Also, the growth at 50 µg/mL in series [3] was -52%. For the same molecule, the growth at 100 µg/mL in series [4] is -67%. For the same molecule, in series [5], the logP was found to be 1.17.
In the case of `COc1cc(C2=NOC(CO[C@@H]3O[C@H](Cn4c(SCc5ccccc5)nnc4-c4ccc(Cl)cc4)[C@H]4OC5(CCCC5)O[C@@H]34)C2)cc(OC)c1OC` (mixture of isomers), in series [1], the growth at 1 µg/mL came to 215%. The growth at 10 µg/mL in series [2] amounted to 60%. Further, the growth at 50 µg/mL in series [3] is -18%. Further, the growth at 100 µg/mL in series [4] is -45%. This molecule also gave a logP in series [5] of 1.97.
The matching figures for `C=CCO[C@@H]1O[C@H](Cn2c(-c3ccc(Cl)cc3)n[nH]c2=S)[C@H]2OC3(CCCC3)O[C@@H]12`: 49%, 44%, 70%, 123% and 1.91.

A word on the logP: it is the decadic logarithm of the partition coefficient of the neutral form, usually between octanol and water. Read a low logP as lower lipophilicity.
